Data published in article PMC7948482, “Erythrocytes efficiently utilize exogenous sphingosines for S1P synthesis and export via Mfsd2b” (The Journal of Biological Chemistry, 2021).

Target: T1, Mfsd2b (Mus musculus, UniProt Q3T9M1)
T1 construct: full-length native transporter in isolated mouse erythrocytes; Mfsd2b knockout erythrocytes as control
T1 sequence (Q3T9M1 1-494): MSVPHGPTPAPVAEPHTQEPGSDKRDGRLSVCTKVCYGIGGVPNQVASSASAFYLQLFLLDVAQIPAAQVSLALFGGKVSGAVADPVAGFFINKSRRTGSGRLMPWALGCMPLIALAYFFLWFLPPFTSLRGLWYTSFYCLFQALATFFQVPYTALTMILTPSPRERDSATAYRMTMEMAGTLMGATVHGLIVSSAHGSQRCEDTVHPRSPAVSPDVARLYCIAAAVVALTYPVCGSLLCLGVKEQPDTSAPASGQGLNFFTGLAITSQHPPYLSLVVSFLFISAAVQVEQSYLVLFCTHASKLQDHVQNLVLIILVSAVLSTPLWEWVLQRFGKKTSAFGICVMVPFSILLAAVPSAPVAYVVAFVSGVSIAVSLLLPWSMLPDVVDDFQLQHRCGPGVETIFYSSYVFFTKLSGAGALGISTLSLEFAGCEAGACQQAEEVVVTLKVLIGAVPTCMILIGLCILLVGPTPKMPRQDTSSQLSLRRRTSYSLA
Assay: [[…]-3H]-S1P export, WT versus Mfsd2b KO erythrocytes
Type: cell-based
Conditions: S1P formed inside from [3-3H]-Sph; 0.5% BSA acceptor; pH 7.4; labelled compound

CCCCCCCCCCCCC/C=C/[C@@H](O)[C@@H](N)COP(=O)(O)O [S1P]
[3-3H]-S1P export, WT versus Mfsd2b KO erythrocytes: Mfsd2b KO erythrocytes showed a significant reduction of S1P transport
